These results are taken from patent publication US20130085283A1, “GERANYLGERANYLACETONE DERIVATIVES” (Coyote Pharmaceuticals, Inc., priority 2011, published 2013).

The subject of one experiment is HSP27. The experiment in a line: Expression of heat shock proteins in vivo, rat brain mRNA by qPCR. Conditions: time 0 = 100%. The procedure:
(§1) GGA trans isomer in 5% Gum Arabic as an aqueous suspension formulation were orally dosed to Sprague-Dawley rats at 12 mg/Kg body weight. Rat brain tissues were extracted in various time points after the oral dosing. mRNA were prepared from those brain tissues extracted, and cDNA were produced. qPCR analysis was done by using primers specifically designed to detect mRNA of HSPs. GAPDH gene was used as a control to compare quantities of HSP cDNAs amplified by qPCR analysis. Amounts of cDNA quantified at time 0 are normalized as 100%, and relative amounts of cDNA compared with those at various time points are depicted in the tables below: […]

A further experiment relates to HSP60. The description is as above. Conditions: time 0 = 100%. The method, then: as §1
Experiment [1] deals with HSP70. The experiment is described as above. The following applies: time 0 = 100%. The method, then: as §1
Another experiment concerns HSP90. The experiment is described as above. The following applies: time 0 = 100%. The procedure:
as §1

Another experiment deals with GAPDH. Briefly: Expression of heat shock proteins in vivo, rat brain mRNA by qPCR (control gene). Conditions: time 0 = 100%. The procedure: as §1
(In qPCR the cycle at which signal appears reflects the starting amount.)

Experiment [2] relates to HSP70. Briefly: HSP70 protein in rat brain lysates by Western blotting after oral dosing. It is filed as in vivo. The procedure:
The compounds tabulated below or vehicle controls were orally dosed at 12 mg/kg to Sprague-Dawley rats. Rat brain tissues were extracted in various time points after the oral dosing. Lysates were prepared from the harvested brain tissues. Western blotting analysis was done for the same protein amounts of these lysates, and western signals of HSP70 were detected by chemiluminescence and quantified in parallel with comparisons of those detected at time 0 hr. Western signals at time 0 hr were normalized as 100.

Where [3] appears, read: 12 hr after oral 12 mg/Kg in 5% Gum Arabic.
[4] abbreviates: 24 hr after oral 12 mg/Kg in 5% Gum Arabic.
The mark [5] stands for this setting: 48 hr after oral 12 mg/Kg in 5% Gum Arabic.
Where [6] appears, read: 96 hr after oral 12 mg/Kg in 5% Gum Arabic.
Where [7] appears, read: 12 hr after oral 12 mg/kg, time 0 hr = 100, Vehicle 102%.
Setting [8] is: 48 hr after oral 12 mg/kg, time 0 hr = 100, Vehicle 105%.
Setting [9] is: 96 hr after oral 12 mg/kg, time 0 hr = 100, Vehicle 99%.

Turning to `CC(=O)CC/C=C(\C)CC/C=C(\C)CC/C=C(\C)CCC=C(C)C` (single isomer, unassigned) [GGA trans isomer, 5E,9E,13E-Geranylgeranyl acetone], the “HSP27 relative amount of cDNA” value in the experiment on HSP27 (setting [3]) was 115.38%; in the experiment with HSP27 (setting [4]), 114.61%; in the experiment on HSP27 (setting [5]), 116.15%; in the experiment on HSP27 (setting [6]), 103.84%. Besides, the “HSP60 relative amount of cDNA” value in the experiment with HSP60 (setting [3]) is given as 113.84%; with HSP60 (setting [4]) it was 130.00%; in the experiment on HSP60 (setting [5]) it was 116.92%; in the experiment with HSP60 (setting [6]), 103.85%. Moreover, the “HSP70 relative amount of cDNA” value with HSP70 [1] (setting [3]) turned out to be 118.46%; with HSP70 [1] (setting [4]), 107.69%; with HSP70 [1] (setting [5]) it was 106.15%; in the experiment on HSP70 [1] (setting [6]) it was 103.85%. The “HSP90 relative amount of cDNA” value was 107.69% with HSP90 (setting [3]), 106.92% in the experiment on HSP90 (setting [4]), 105.38% in the experiment with HSP90 (setting [5]) and 100.77% with HSP90 (setting [6]). The “GAPDH relative amount of cDNA (control gene)” value worked out at 96.93% with GAPDH (setting [3]), 99.24% in the experiment with GAPDH (setting [4]), 100% in the experiment on GAPDH (setting [5]) and 102.31% with GAPDH (setting [6]). The figures for the “Western signal of HSP70 in brain” value in the experiment on HSP70 [2] (setting [7]), in the experiment on HSP70 [2] (setting [8]) and with HSP70 [2] (setting [9]) were 115%, 115% and 114%, respectively.
For the compound `CC(C)=CCC/C(C)=C/CC/C(C)=C/CC/C(C)=C/CC1CCCCC1=O` (centres unmarked) [drawing 180], the “Western signal of HSP70 in brain” value with HSP70 [2] (setting [7]) was determined as 116%; with HSP70 [2] (setting [8]), 114%; with HSP70 [2] (setting [9]), 97%.
